Measured values published in patent US5250544A, “New piperidine tetrahydropyridine and pyrrolidine compounds” (Adir et Compagnie, priority 1990, dated 1993).

Assay: Evaluation of the antihypertensive activity: arterial pressure and heart rate in anesthetized dogs, i.v.
Assay type: in vivo
Settings: anesthetized mongrel dogs, versus flesinoxan racemic or isomer (+)
Experimental: Mongrel dogs (males and females) were anesthetized with phenobarbital (30 mg/kg i.v.) and then placed under artificial respiration (Bird Mark VII respirator). The arterial pressure was measured using a catheter placed in the abdominal aorta via the femoral artery. This catheter is connected to a pressure cell (Statham® R23 D6) connected to a recorder.
The heart rate was measured using a Gould Biotach®.
The sympathetic nervous activity was recorded at the level of the renal nerve using a silver electrode. […] The compounds to be examined were administered intravenously.

For O=C(NCCN1CCN(c2cccc3c2OC[C@H](CO)O3)CC1)c1ccc(F)cc1 (single isomer, unassigned) [Flesinoxan (+) Isomer], the “activity compared with reference product flesinoxan (antihypertensive study, Table II)” value was “most active isomer of flesinoxan”.
